# From PubChem BioAssay AID1745844 (Carcinogenic Potency Database (CPDB), 2022)
# System: rodent lifetime carcinogenesis bioassay, tumor incidence TD50
# Assay: chronic cancer bioassays in animals – CPDB, compiled studies (AID 1745844)
smiles,measurement,setting,value
CNNCc1ccc(C(=O)NC(C)C)cc1,TD50,"monkey, strain Cynomolgus [Macaca fascicularis], both sexes, several routes, site: all sites, lesion: acute nonlymphocytic leukemia, dosed 825 weeks, study length 980 weeks",14.8 mg/kg/day
same,TD50,"monkey, strain Cynomolgus [Macaca fascicularis], both sexes, several routes, site: all sites, lesion: lymphocytic lymphoma, dosed 825 weeks, study length 980 weeks",21.1 mg/kg/day
same,TD50,"monkey, strain Cynomolgus [Macaca fascicularis], both sexes, several routes, site: any site (literature study), lesion: malignant tumor, dosed 825 weeks, study length 980 weeks",1.73 mg/kg/day
same,TD50,"monkey, strain Cynomolgus [Macaca fascicularis], both sexes, several routes, site: bone, lesion: osteosarcoma, dosed 825 weeks, study length 980 weeks",5.91 mg/kg/day
same,TD50,"monkey, strain Cynomolgus [Macaca fascicularis], both sexes, several routes, site: brain, lesion: astrocytoma, dosed 825 weeks, study length 980 weeks",6.19 mg/kg/day
same,TD50,"monkey, strain Cynomolgus [Macaca fascicularis], both sexes, several routes, site: kidney, lesion: hemangiosarcoma, dosed 825 weeks, study length 980 weeks",23.5 mg/kg/day
same,TD50,"monkey, strain Rhesus [Macaca mulatta], both sexes, several routes, site: all sites, lesion: acute nonlymphocytic leukemia, dosed 825 weeks, study length 1182 weeks",4.21 mg/kg/day
same,TD50,"monkey, strain Rhesus [Macaca mulatta], both sexes, several routes, site: any site (literature study), lesion: malignant tumor, dosed 825 weeks, study length 1182 weeks",1.9 mg/kg/day
same,TD50,"monkey, strain Rhesus [Macaca mulatta], both sexes, several routes, site: cecum, lesion: adenocarcinoma, dosed 825 weeks, study length 1182 weeks",5.16 mg/kg/day
same,TD50,"monkey, strain Rhesus [Macaca mulatta], both sexes, several routes, site: humerus, lesion: osteosarcoma, dosed 825 weeks, study length 1182 weeks",32.7 mg/kg/day
same,TD50,"monkey, strain Rhesus [Macaca mulatta], both sexes, several routes, site: kidney, lesion: hemangiosarcoma, dosed 825 weeks, study length 1182 weeks",39.6 mg/kg/day
same,TD50,"mouse, strain B6C3F1, females, i.p., site: all sites + brain + lung + uterus, lesion: leukemia + lymphoma + olfactory neuroblastoma + alveolar/bronchiolar adenoma + adenocarcinoma, NOS, dosed 52 weeks, study length 85 weeks",0.194 mg/kg/day
same,TD50,"mouse, strain B6C3F1, females, i.p., site: all sites, lesion: leukemia + lymphoma, dosed 52 weeks, study length 80 weeks",0.69 mg/kg/day
same,TD50,"mouse, strain B6C3F1, females, i.p., site: all sites, lesion: leukemia + lymphoma, dosed 52 weeks, study length 85 weeks",0.758 mg/kg/day
same,TD50,"mouse, strain B6C3F1, females, i.p., site: all sites, lesion: lymphoma, dosed 52 weeks, study length 80 weeks",0.855 mg/kg/day
same,TD50,"mouse, strain B6C3F1, females, i.p., site: all sites, lesion: lymphoma, dosed 52 weeks, study length 85 weeks",0.908 mg/kg/day
same,TD50,"mouse, strain B6C3F1, females, i.p., site: any site (literature study), lesion: several types, types named in the paper, dosed 52 weeks, study length 85 weeks",0.193 mg/kg/day
same,TD50,"mouse, strain B6C3F1, females, i.p., site: brain, lesion: olfactory neuroblastoma, dosed 52 weeks, study length 80 weeks",5.62 mg/kg/day
same,TD50,"mouse, strain B6C3F1, females, i.p., site: brain, lesion: olfactory neuroblastoma, dosed 52 weeks, study length 85 weeks",6.34 mg/kg/day
same,TD50,"mouse, strain B6C3F1, females, i.p., site: lung, lesion: alveolar/bronchiolar adenoma + alveolar/bronchiolar carcinoma, dosed 52 weeks, study length 85 weeks",3.83 mg/kg/day
same,TD50,"mouse, strain B6C3F1, females, i.p., site: lung, lesion: alveolar/bronchiolar adenoma, dosed 52 weeks, study length 80 weeks",3.39 mg/kg/day
same,TD50,"mouse, strain B6C3F1, females, i.p., site: lung, lesion: alveolar/bronchiolar adenoma, dosed 52 weeks, study length 85 weeks",3.83 mg/kg/day
same,TD50,"mouse, strain B6C3F1, females, i.p., site: uterus, lesion: adenocarcinoma, NOS, dosed 52 weeks, study length 80 weeks",0.411 mg/kg/day
same,TD50,"mouse, strain B6C3F1, females, i.p., site: uterus, lesion: adenocarcinoma, NOS, dosed 52 weeks, study length 85 weeks",0.253 mg/kg/day
same,TD50,"mouse, strain B6C3F1, males, i.p., site: all sites + brain + lung, lesion: leukemia + lymphoma + olfactory neuroblastoma + undifferentiated carcinoma + alveolar/bronchiolar adenoma + alveolar/bronchiolar c, dosed 52 weeks, study length 85 weeks",0.511 mg/kg/day
same,TD50,"mouse, strain B6C3F1, males, i.p., site: all sites, lesion: leukemia + lymphoma, dosed 52 weeks, study length 85 weeks",3.34 mg/kg/day
same,TD50,"mouse, strain B6C3F1, males, i.p., site: any site (literature study), lesion: several types, types named in the paper, dosed 52 weeks, study length 85 weeks",0.464 mg/kg/day
same,TD50,"mouse, strain B6C3F1, males, i.p., site: brain, lesion: olfactory neuroblastoma + undifferentiated carcinoma, dosed 52 weeks, study length 85 weeks",4.51 mg/kg/day
same,TD50,"mouse, strain B6C3F1, males, i.p., site: brain, lesion: olfactory neuroblastoma, dosed 52 weeks, study length 85 weeks",5.19 mg/kg/day
same,TD50,"mouse, strain B6C3F1, males, i.p., site: liver, lesion: hepatocellular adenoma + hepatocellular carcinoma + neoplastic nodule, dosed 52 weeks, study length 85 weeks",3.28 mg/kg/day
same,TD50,"mouse, strain B6C3F1, males, i.p., site: lung, lesion: alveolar/bronchiolar adenoma + alveolar/bronchiolar carcinoma, dosed 52 weeks, study length 85 weeks",0.623 mg/kg/day
same,TD50,"mouse, strain B6C3F1, males, i.p., site: lung, lesion: alveolar/bronchiolar adenoma, dosed 52 weeks, study length 85 weeks",0.721 mg/kg/day
same,TD50,"mouse, strain Swiss, females, i.p., site: all sites, lesion: leukemia, dosed 26 weeks, study length 76 weeks",3.72 mg/kg/day
same,TD50,"mouse, strain Swiss, females, i.p., site: all sites, lesion: lymphosarcoma, dosed 26 weeks, study length 76 weeks",6.99 mg/kg/day
same,TD50,"mouse, strain Swiss, females, i.p., site: any site (literature study), lesion: benign tumor, dosed 26 weeks, study length 76 weeks",27.8 mg/kg/day
same,TD50,"mouse, strain Swiss, females, i.p., site: any site (literature study), lesion: malignant tumor, dosed 26 weeks, study length 76 weeks",0.391 mg/kg/day
same,TD50,"mouse, strain Swiss, females, i.p., site: any site (literature study), lesion: several types, types named in the paper, dosed 26 weeks, study length 76 weeks",0.244 mg/kg/day
same,TD50,"mouse, strain Swiss, females, i.p., site: lung, lesion: several types, types named in the paper, dosed 26 weeks, study length 76 weeks",1.05 mg/kg/day
same,TD50,"mouse, strain Swiss, females, i.p., site: uterus, lesion: carcinoma, dosed 26 weeks, study length 76 weeks",5.75 mg/kg/day
same,TD50,"mouse, strain Swiss, females, i.p., site: uterus, lesion: sarcoma, dosed 26 weeks, study length 76 weeks",6.11 mg/kg/day
same,TD50,"mouse, strain Swiss, males, i.p., site: any site (literature study), lesion: benign tumor, dosed 26 weeks, study length 78 weeks",9.84 mg/kg/day
same,TD50,"mouse, strain Swiss, males, i.p., site: any site (literature study), lesion: malignant tumor, dosed 26 weeks, study length 78 weeks",1.74 mg/kg/day
same,TD50,"mouse, strain Swiss, males, i.p., site: any site (literature study), lesion: several types, types named in the paper, dosed 26 weeks, study length 78 weeks",1.15 mg/kg/day
same,TD50,"mouse, strain Swiss, males, i.p., site: lung, lesion: several types, types named in the paper, dosed 26 weeks, study length 78 weeks",1.53 mg/kg/day
same,TD50,"rat, strain BR 46, males, i.v., site: any site (literature study), lesion: malignant tumor, dosed 52 weeks, study length 104 weeks",3.93 mg/kg/day
same,TD50,"rat, strain BR 46, males, i.v., site: any site (literature study), lesion: several types, types named in the paper, dosed 52 weeks, study length 104 weeks",4.01 mg/kg/day
same,TD50,"rat, strain Sprague-Dawley, females, i.p., site: all sites + brain + cerebrum + mammary gland, lesion: lymphoma + olfactory neuroblastoma + mucinous adenocarcinoma + adenocarcinoma, NOS + adenoma, NOS, dosed 26 weeks, study length 86 weeks",0.337 mg/kg/day
same,TD50,"rat, strain Sprague-Dawley, females, i.p., site: all sites, lesion: lymphoma, dosed 26 weeks, study length 80 weeks",4.48 mg/kg/day
same,TD50,"rat, strain Sprague-Dawley, females, i.p., site: all sites, lesion: lymphoma, dosed 26 weeks, study length 86 weeks",5.18 mg/kg/day
same,TD50,"rat, strain Sprague-Dawley, females, i.p., site: any site (literature study), lesion: several types, types named in the paper, dosed 26 weeks, study length 86 weeks",0.329 mg/kg/day
same,TD50,"rat, strain Sprague-Dawley, females, i.p., site: brain + cerebrum, lesion: olfactory neuroblastoma + mucinous adenocarcinoma, dosed 26 weeks, study length 80 weeks",0.36 mg/kg/day
same,TD50,"rat, strain Sprague-Dawley, females, i.p., site: brain + cerebrum, lesion: olfactory neuroblastoma + mucinous adenocarcinoma, dosed 26 weeks, study length 86 weeks",0.416 mg/kg/day
same,TD50,"rat, strain Sprague-Dawley, females, i.p., site: brain, lesion: olfactory neuroblastoma, dosed 26 weeks, study length 80 weeks",0.361 mg/kg/day
same,TD50,"rat, strain Sprague-Dawley, females, i.p., site: brain, lesion: olfactory neuroblastoma, dosed 26 weeks, study length 86 weeks",0.418 mg/kg/day
same,TD50,"rat, strain Sprague-Dawley, females, i.p., site: mammary gland, lesion: adenocarcinoma, NOS + adenoma, NOS, dosed 26 weeks, study length 80 weeks",0.396 mg/kg/day
same,TD50,"rat, strain Sprague-Dawley, females, i.p., site: mammary gland, lesion: adenocarcinoma, NOS + adenoma, NOS, dosed 26 weeks, study length 86 weeks",0.458 mg/kg/day
same,TD50,"rat, strain Sprague-Dawley, females, i.p., site: mammary gland, lesion: adenocarcinoma, NOS, dosed 26 weeks, study length 80 weeks",0.397 mg/kg/day
same,TD50,"rat, strain Sprague-Dawley, females, i.p., site: mammary gland, lesion: adenocarcinoma, NOS, dosed 26 weeks, study length 86 weeks",0.459 mg/kg/day
same,TD50,"rat, strain Sprague-Dawley, males, i.p., site: all sites + brain + mammary gland + olfactory bulb, lesion: leukemia + lymphoma + carcinoma, NOS + olfactory neuroblastoma + adenocarcinoma, NOS + adenoma, NOS, dosed 26 weeks, study length 61 weeks",0.284 mg/kg/day
same,TD50,"rat, strain Sprague-Dawley, males, i.p., site: all sites, lesion: leukemia + lymphoma, dosed 26 weeks, study length 61 weeks",2.1 mg/kg/day
same,TD50,"rat, strain Sprague-Dawley, males, i.p., site: all sites, lesion: leukemia, dosed 26 weeks, study length 61 weeks",13.3 mg/kg/day
same,TD50,"rat, strain Sprague-Dawley, males, i.p., site: all sites, lesion: lymphoma, dosed 26 weeks, study length 61 weeks",2.51 mg/kg/day
same,TD50,"rat, strain Sprague-Dawley, males, i.p., site: any site (literature study), lesion: several types, types named in the paper, dosed 26 weeks, study length 61 weeks",0.186 mg/kg/day
same,TD50,"rat, strain Sprague-Dawley, males, i.p., site: brain + olfactory bulb, lesion: carcinoma, NOS + olfactory neuroblastoma + adenocarcinoma, NOS, dosed 26 weeks, study length 61 weeks",0.343 mg/kg/day
same,TD50,"rat, strain Sprague-Dawley, males, i.p., site: mammary gland, lesion: adenocarcinoma, NOS + adenoma, NOS, dosed 26 weeks, study length 61 weeks",4.5 mg/kg/day
same,TD50,"rat, strain Sprague-Dawley, males, i.p., site: mammary gland, lesion: adenocarcinoma, NOS, dosed 26 weeks, study length 61 weeks",4.85 mg/kg/day
same,TD50,"rat, strain Sprague-Dawley, males, i.p., site: olfactory bulb, lesion: adenocarcinoma, NOS, dosed 26 weeks, study length 61 weeks",4.67 mg/kg/day
